2 compounds from patent EP3398599A1, “COMPOSITIONS AND METHODS FOR PROPHYLAXIS AND TREATMENT OF ADDICTIONS” (priority 2009, dated 2010) can be followed below.

Common to all, as to format: in vivo
The subject of assay [1] is msP rats. The experiment in a line: Cue-induced reinstatement of alcohol seeking. Particulars: naltrexone, both doses (0.25 and 1.0 mg/kg) one hour before test; p<0.01.
Assay [2] deals with human patients. The experiment in a line: Observational study of alcohol abuse in human patients (pioglitazone 30 mg/day or naltrexone 50 mg/day + psychotherapy). Particulars: for CDT: mean value of blood tests. From the text:
Patients were instructed to record in a personal logbook the number of drinks per day and the time of the day drinks occurred. At the end of the study, the logbooks were returned to the clinical personnel who analyzed the data.
In addition, biochemical parameters to ascertain alcohol detoxification and to measure recovery of physiological functions (i.e., hepatic function) were monitored monthly. Hematological parameters measured included: mean corpuscular volume (MCV); gamma-GT; aspartate aminotransferase (AST); alanine aminotransferase (ALT); and carbohydrate-deficient transferring (CDT). MCV and CDT are biomarkers for ethanol consumption, and GGT, ALT and AST are biomarkers for hepatic functionality.
Data were analyzed by analysis of variance followed by Newman-Keuls post hoc tests when appropriate.

Assay [3] relates to msP rats. Kind of assay: Voluntary ethanol intake, subchronic (7 days) treatment, alcohol available 24 hours/day. Particulars: naltrexone […] IP alone or with pioglitazone 10.0 or 30.0 mg/kg OS, overall p<0.01. As to the method: At the beginning of the experiments, msP rats were allowed free choice between water and 10% (v/v) alcohol 24 h/day for at least 15 days. The fluids were offered in graduated drinking tubes equipped with metallic drinking spouts. The position (to the right or left) of alcohol and water drinking tubes was changed daily to avoid the development of side preference. […] Alcohol, water and food intakes were measured.
Before starting the treatment, rats were trained to gavage administration procedures for three days, during which they received vehicle (distilled water).
(§1) Alcohol, water and food intakes were monitored at 2, 8 and 24 hours. Fluids and food intakes were monitored for three additional days after the end of the drug treatment period.
as §1

Assay [4] deals with msP rats. The experiment in a line: Yohimbine-induced (stress-induced) reinstatement of alcohol seeking. The note with it: naltrexone 0.25 and 1.0 mg/kg IP 1 hour before test.
Assay [5] relates to Long Evans rats. Kind of assay: Yohimbine-induced reinstatement of nicotine seeking. Particulars: yohimbine 2.0 mg/kg/ml; p<0.001. The method, then:
Stress and anxiety are major factors in resuming nicotine use in former abstinent users. […] Briefly, following acquisition of a stable baseline of IV nicotine self-administration (30µg/0.1ml/infusion), male Long Evans rats (n=8) were subjected to an extinction period of 5 days.
Reinstatement experiments and relative drug treatments were performed every third day. Between reinstatements, extinction baseline was re-established.

The structures appear in SMILES notation. Entries after “also recorded” stand apart in the source; their conditions may differ.

Consider `O=C1CC[C@@]2(O)[C@H]3Cc4ccc(O)c5c4[C@@]2(CCN3CC2CC2)[C@H]1O5` [naltrexone], for which the “conditioned (cue-induced) reinstatement of alcohol-seeking” value in assay [1] is listed as “significantly reduced reinstatement of ethanol seeking; also recorded: significantly reduced cue-induced reinstatement of alcohol-seeking”. In addition, the “Depression Scale M.A.D.R.S (mean score values)” value is on record as 19 in assay [2] (T=0 (beginning of the treatment)); 16 in assay [2] (T=1.1 (month 1, week 1)); 18 in assay [2] (T=1.2 (month 1, week 2)). Also, the “effect on daily drinks, naltrexone vs pioglitazone” value in assay [2] (first two weeks of treatment, P<0.05) is given as “more effective than pioglitazone”. For the same compound, the CDT in assay [2] (T0) came to 3.6; in assay [2] (T1= 4 weeks), 3.0; in assay [2] (T2= 8 weeks), 2.5. Moreover, in assay [2] (naltrexone treated patients (NTX), two months), the “decrease in MCV and CDT” value is recorded as “to a lesser extent compared to the pioglitazone group”. Besides, in assay [2] (post hoc tests, P<0.001), the “all the five biomarkers (MCV, GGT, ALT, AST, CDT): difference from controls (psychotherapy alone)” value is “statistical difference”. In assay [2] (post hoc tests, P<0.001), the “anxiety score: difference from controls” value was “statistically significant difference”. Also, the “obsessive compulsive score for alcohol (OCDS): decrease, difference from controls” value in assay [2] (post hoc tests, P<0.001) is on record as “statistically significant difference”. Moreover, in assay [2] (post hoc tests, P<0.001 for pioglitazone), the “depression score (MADRS): difference from controls” value is reported as “not naltrexone”. Further, in assay [2] (two months of treatment), the “hepatic parameters (GGT, ALT, AST)” value is given as “ameliorated”. Besides, the “daily ethanol intake (number of daily drinks)” value in assay [2] (vs psychotherapy only) was “significantly reduced daily ethanol intake”. In assay [2] (vs psychotherapy only), the “number of abstinence days” value is on record as “increased the number of abstinence days”. Also, the voluntary ethanol intake result in assay [3] is given as “significantly reduced”. Besides, the “yohimbine-induced reinstatement of alcohol seeking” value in assay [4] was “did not significantly reduce the effect of yohimbine”.

Consider `COC(=O)[C@@H]1[C@H]2C[C@H]3c4[nH]c5ccccc5c4CCN3C[C@@H]2CC[C@@H]1O` [yohimbine], for which the “reinstatement of responding (nicotine seeking) compared to extinction” value in assay [5] is on record as “significant reinstatement of responding”.
